Data reported in patent US20240390508A1, “HUMAN TRANSFERRIN RECEPTOR BINDING PEPTIDE-DRUG CONJUGATE” (priority 2021, published 2024).

Biological target: transferrin receptor (hTfR) (Homo sapiens, UniProt P02786)
Assay: Intermolecular interaction evaluation test between transferrin receptor (hTfR) and peptide-nucleic acid conjugate using surface plasmon resonance (SPR)
Format: binding
Procedure: Intermolecular interaction evaluation test between transferrin receptor (hTfR) and peptide using surface plasmon resonance (SPR)
The various synthesized peptide-nucleic acid conjugates were tested for intermolecular interaction by surface plasmon resonance (SPR) of the peptide-nucleic acid conjugate with transferrin receptor (hTfR) using the method shown below. The specific test method is shown below.
NTA sensor chip (Global Life Science Technologies Japan Co., Ltd.) was inserted into Biacore T200 (Global Life Science Technologies Japan Co., Ltd.), prime operation was performed three times with running buffer: 10 mM HEPES pH 8.0 (Nacalai Tesque Co., Ltd.), 150 mM NaCl (Nacalai Tesque Co., Ltd.), 0.05% Tween 20 (Nacalai Tesque Co., Ltd.), 0.1% BSA (SIGMA-ALDRICH), and 1.0% DMSO (FUJIFILM Wako Pure Chemical Corporation), and equilibrated at a flow rate of 30 μL/min. 350 mM EDTA solution was reacted for 60 seconds at a flow rate of 10 μL/min, 0.5 mM NiCl2 solution (Kishida Chemical) was reacted for 60 seconds at a flow rate of 10 μL/min, and the NTA sensor chip was washed with 3 mM EDTA solution (Nacalai Tesque Co., Ltd.) for 60 seconds at a flow rate of 10 μL/min. After mixing 50 μL each of […] EDC solution (Global Life Science Technologies Japan Co., Ltd.) and […] NHS solution (Global Life Science Technologies Japan Co., Ltd.), the mixture was reacted for 420 seconds at a flow rate of 10 μL/min. 150 μL of a 0.5 μM hTfR solution was prepared by diluting with a running buffer and reacted for 300 seconds at a flow rate of 10 μL/min to immobilize hTfR on the NTA sensor chip. After immobilization, capping was performed by reacting with a 1.0 M ethanolamine aqueous solution (Global Life Science Technologies Japan Co., Ltd.) at a flow rate of 10 μL/min for 420 seconds. A peptide-nucleic acid conjugate solution adjusted to 10 mM in DMSO solution was diluted with running buffer to a final concentration of 10 μM peptide-nucleic acid conjugate solution, and 100 nM, 50 nM, 25 nM, 10 nM, 5 nM peptide-nucleic acid conjugate solutions were prepared. Using the aforementioned samples, the kinetics of the peptide against hTfR was obtained by SPR measurement.
The kinetics evaluation model was Single Cycle Kinetics, and curve fitting was performed using Biacore T200 Evaluation Software Version 3.0 (Global Life Science Technologies Japan Co., Ltd.). The obtained sensorgram was subjected to curve fitting using the least squares method, and the binding of the peptide-nucleic acid conjugate to hTfR was evaluated by determining the KD value.

Sequence of transferrin receptor (hTfR) (P02786 whole entry): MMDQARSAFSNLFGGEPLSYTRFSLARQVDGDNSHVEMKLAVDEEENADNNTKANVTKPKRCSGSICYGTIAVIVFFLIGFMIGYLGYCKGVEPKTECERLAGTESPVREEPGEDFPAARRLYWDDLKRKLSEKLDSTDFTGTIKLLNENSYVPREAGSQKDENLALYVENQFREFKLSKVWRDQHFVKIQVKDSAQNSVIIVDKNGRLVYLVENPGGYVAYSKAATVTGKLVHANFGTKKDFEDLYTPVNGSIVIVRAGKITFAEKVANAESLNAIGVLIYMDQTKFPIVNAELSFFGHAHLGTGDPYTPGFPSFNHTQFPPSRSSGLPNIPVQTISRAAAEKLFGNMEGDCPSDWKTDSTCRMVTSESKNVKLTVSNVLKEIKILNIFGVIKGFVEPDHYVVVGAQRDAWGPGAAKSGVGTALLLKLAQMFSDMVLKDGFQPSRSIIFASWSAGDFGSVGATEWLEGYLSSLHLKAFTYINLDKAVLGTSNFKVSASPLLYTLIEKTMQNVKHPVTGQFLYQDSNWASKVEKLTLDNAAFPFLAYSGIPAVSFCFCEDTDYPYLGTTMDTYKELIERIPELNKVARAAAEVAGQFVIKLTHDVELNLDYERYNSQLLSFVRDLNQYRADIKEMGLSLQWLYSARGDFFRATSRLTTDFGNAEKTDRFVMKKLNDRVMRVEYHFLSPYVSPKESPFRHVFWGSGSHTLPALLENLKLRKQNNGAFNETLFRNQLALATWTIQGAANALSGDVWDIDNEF

| SMILES | Kd [nM] |
| --- | --- |
| CC[C@H](C)[C@@H]1NC(=O)[C@H](Cc2ccc(O)cc2)NC(=O)[C@H](Cc2ccc(O)cc2)NC(=O)[C@H](CC(N)=O)NC(=O)[C@H](Cc2c[nH]c3ccccc23)NC(=O)[C@H](C(C)C)NC(=O)[C@H](Cc2ccccc2)N(C)C(=O)[C@H](C(C)C)NC(=O)[C@H](C)NC(=O)CSC[C@@H](C(=O)NCC(=O)N[C@@H](CCCCn2cc(CCC(=O)NCCOCCOCC(=O)N[C@@H](CCCCN)C(=O)N[C@@H](CCCCN)C(=O)N[C@@H](CCCCN)C(=O)NCC(=O)N3C[C@@H](COP(=O)(N(C)C)N4C[C@@H](COP(=O)(N(C)C)N5C[C@@H](COP(=O)(N(C)C)N6C[C@@H](COP(=O)(N(C)C)N7C[C@@H](COP(=O)(N(C)C)N8C[C@@H](COP(=O)(N(C)C)N9C[C@@H](COP(=O)(N(C)C)N%10C[C@@H](COP(=O)(N(C)C)N%11C[C@@H](COP(=O)(N(C)C)N%12C[C@@H](COP(=O)(N(C)C)N%13C[C@@H](COP(=O)(N(C)C)N%14C[C@@H](COP(=O)(N(C)C)N%15C[C@@H](COP(=O)(N(C)C)N%16C[C@@H](COP(=O)(N(C)C)N%17C[C@@H](COP(=O)(N(C)C)N%18C[C@@H](COP(=O)(N(C)C)N%19C[C@@H](COP(=O)(N(C)C)N%20C[C@@H](COP(=O)(N(C)C)N%21C[C@@H](COP(=O)(N(C)C)N%22C[C@@H](COP(=O)(N(C)C)N%23C[C@@H](COP(=O)(N(C)C)N%24C[C@@H](COP(=O)(N(C)C)N%25C[C@@H](COP(=O)(N(C)C)N%26C[C@@H](COP(=O)(N(C)C)N%27C[C@@H](COP(=O)(N(C)C)N(C)CC(N)=O)O[C@@H](n%28cnc%29c(=O)[nH]c(N)nc%29%28)C%27)O[C@@H](n%27cnc%28c(=O)[nH]c(N)nc%28%27)C%26)O[C@@H](n%26ccc(N)nc%26=O)C%25)O[C@@H](n%25ccc(N)nc%25=O)C%24)O[C@@H](n%24cnc%25c(N)ncnc%25%24)C%23)O[C@@H](n%23cnc%24c(N)ncnc%24%23)C%22)O[C@@H](n%22cnc%23c(N)ncnc%23%22)C%21)O[C@@H](n%21ccc(N)nc%21=O)C%20)O[C@@H](n%20ccc(N)nc%20=O)C%19)O[C@@H](n%19cc(C)c(=O)[nH]c%19=O)C%18)O[C@@H](n%18ccc(N)nc%18=O)C%17)O[C@@H](n%17cnc%18c(=O)[nH]c(N)nc%18%17)C%16)O[C@@H](n%16cnc%17c(=O)[nH]c(N)nc%17%16)C%15)O[C@@H](n%15ccc(N)nc%15=O)C%14)O[C@@H](n%14cc(C)c(=O)[nH]c%14=O)C%13)O[C@@H](n%13cc(C)c(=O)[nH]c%13=O)C%12)O[C@@H](n%12cnc%13c(N)ncnc%13%12)C%11)O[C@@H](n%11ccc(N)nc%11=O)C%10)O[C@@H](n%10ccc(N)nc%10=O)C9)O[C@@H](n9cc(C)c(=O)[nH]c9=O)C8)O[C@@H](n8cnc9c(=O)[nH]c(N)nc98)C7)O[C@@H](n7cnc8c(N)ncnc87)C6)O[C@@H](n6cnc7c(N)ncnc76)C5)O[C@@H](n5cnc6c(N)ncnc65)C4)O[C@@H](n4cc(C)c(=O)[nH]c4=O)C3)nn2)C(N)=O)NC(=O)[C@H](Cc2ccc(O)cc2)N(C)C(=O)[C@H](Cc2ccc(O)cc2)NC(=O)[C@H](CCCNC(=N)N)NC(=O)[C@H](CCCNC(=N)N)NC(=O)[C@H]([C@@H](C)CC)NC1=O (some centres unmarked) [Example 61] | < 100 |
| CC[C@H](C)[C@@H]1NC(=O)[C@H](Cc2ccc(O)cc2)NC(=O)[C@H](Cc2ccc(O)cc2)NC(=O)[C@H](CC(N)=O)NC(=O)[C@H](Cc2c[nH]c3ccccc23)NC(=O)[C@H](C(C)C)NC(=O)[C@H](Cc2ccccc2)N(C)C(=O)[C@H](C(C)C)NC(=O)[C@H](C)NC(=O)CSC[C@@H](C(=O)NCC(=O)N[C@@H](CCCCn2nnc3c2CCC2C(CC3)C2COC(=O)NCC(=O)NCC(=O)NCC(=O)N[C@@H](CCC(=O)O)C(=O)N[C@@H](CCC(=O)O)C(=O)N[C@@H](CCC(=O)O)C(=O)N[C@@H](CO)C(=O)N[C@@H](CO)C(=O)N[C@@H](CSC2CC(=O)N(CCC(=O)N3C[C@@H](COP(=O)(N(C)C)N4C[C@@H](COP(=O)(N(C)C)N5C[C@@H](COP(=O)(N(C)C)N6C[C@@H](COP(=O)(N(C)C)N7C[C@@H](COP(=O)(N(C)C)N8C[C@@H](COP(=O)(N(C)C)N9C[C@@H](COP(=O)(N(C)C)N%10C[C@@H](COP(=O)(N(C)C)N%11C[C@@H](COP(=O)(N(C)C)N%12C[C@@H](COP(=O)(N(C)C)N%13C[C@@H](COP(=O)(N(C)C)N%14C[C@@H](COP(=O)(N(C)C)N%15C[C@@H](COP(=O)(N(C)C)N%16C[C@@H](COP(=O)(N(C)C)N%17C[C@@H](COP(=O)(N(C)C)N%18C[C@@H](COP(=O)(N(C)C)N%19C[C@@H](COP(=O)(N(C)C)N%20C[C@@H](COP(=O)(N(C)C)N%21C[C@@H](COP(=O)(N(C)C)N%22C[C@@H](COP(=O)(N(C)C)N%23C[C@@H](COP(=O)(N(C)C)N%24C[C@@H](COP(=O)(N(C)C)N%25C[C@@H](COP(=O)(N(C)C)N%26C[C@@H](COP(=O)(N(C)C)N%27C[C@@H](COP(=O)(N(C)C)N(C)CC(N)=O)O[C@@H](n%28cnc%29c(=O)[nH]c(N)nc%29%28)C%27)O[C@@H](n%27cc(C)c(=O)[nH]c%27=O)C%26)O[C@@H](n%26cc(C)c(=O)[nH]c%26=O)C%25)O[C@@H](n%25cnc%26c(=O)[nH]c(N)nc%26%25)C%24)O[C@@H](n%24ccc(N)nc%24=O)C%23)O[C@@H](n%23ccc(N)nc%23=O)C%22)O[C@@H](n%22cc(C)c(=O)[nH]c%22=O)C%21)O[C@@H](n%21ccc(N)nc%21=O)C%20)O[C@@H](n%20ccc(N)nc%20=O)C%19)O[C@@H](n%19cnc%20c(=O)[nH]c(N)nc%20%19)C%18)O[C@@H](n%18cnc%19c(=O)[nH]c(N)nc%19%18)C%17)O[C@@H](n%17cc(C)c(=O)[nH]c%17=O)C%16)O[C@@H](n%16cc(C)c(=O)[nH]c%16=O)C%15)O[C@@H](n%15ccc(N)nc%15=O)C%14)O[C@@H](n%14cc(C)c(=O)[nH]c%14=O)C%13)O[C@@H](n%13cnc%14c(=O)[nH]c(N)nc%14%13)C%12)O[C@@H](n%12cnc%13c(N)ncnc%13%12)C%11)O[C@@H](n%11cnc%12c(N)ncnc%12%11)C%10)O[C@@H](n%10cnc%11c(=O)[nH]c(N)nc%11%10)C9)O[C@@H](n9cnc%10c(=O)[nH]c(N)nc%109)C8)O[C@@H](n8cc(C)c(=O)[nH]c8=O)C7)O[C@@H](n7cnc8c(=O)[nH]c(N)nc87)C6)O[C@@H](n6cc(C)c(=O)[nH]c6=O)C5)O[C@@H](n5cc(C)c(=O)[nH]c5=O)C4)O[C@@H](n4ccc(N)nc4=O)C3)C2=O)C(N)=O)C(N)=O)NC(=O)[C@H](Cc2ccc(O)cc2)N(C)C(=O)[C@H](Cc2ccc(O)cc2)NC(=O)[C@H](CCCNC(=N)N)NC(=O)[C@H](CCCNC(=N)N)NC(=O)[C@H]([C@@H](C)CC)NC1=O (some centres unmarked) [Example 58] | < 100 |
